Results published in paper PMC12771125, “Compounds Reducing Human Sperm Motility as Potential Nonhormonal Contraceptives Identified Using a High-Throughput Phenotypic Screening Platform” (ACS Omega, 2025).
In brackets after ≈: the same amount, converted by molar mass. Where two headings read alike, the source gives them in different places.

Experiments:
human sperm = assay: Reduction of sperm motility (RSM) high-throughput phenotypic assay; format: cell-based; conditions: for EC50: Homo sapiens, reduction of progressive sperm motility relative to control
Procedure: Using our previously established phenotypic human sperm motility screening platform, we screened a large subset (62,621 compounds) of one of our in-house diversity libraries (National Phenotypic Screening Centre (NPSC) Diversity Set) (Figure A,B). Briefly, human sperm are collected, isolated from semen, distributed into 384-well plates with test compounds, time-lapse images of sperm movement are recorded using a high-content imager, and progressive motility parameters are calculated using custom data analysis software. Sperm motility is complicated, and the mechanisms underpinning its regulation are not fully understood. Progressive motility, which is a measurement of the movement of forward progression of sperm, is most closely linked to sperm quality, and the percentage of progressively motile sperm compared to control is therefore the parameter utilized during the work described in this paper. […]
We used an HTS screening platform to assess the motility of live human spermatozoa. The platform and its development are described in detail in Gruber et al. , and summarized below in brief. The platform was used to screen compound libraries specifically focusing on reduction in motility. Interesting compounds were examined in further detail as possible starting points for a medicinal chemistry program. The experimental design is illustrated in Figure .
Donors were local to the Dundee area, over the age of 18, and had no known fertility problems and normal sperm concentration, motility and semen characteristics according to WHO 2021 criteria. Special category personal data for donors, such as ethnic origin, was not recorded in accordance with ethical approval and UK GDPR. Samples were obtained by masturbation, after sexual abstinence of 2–5 days, and delivered to the research laboratory within one h of production. Samples were allowed to liquefy at 37 °C for 15–30 min prior to preparation by discontinuous density gradient centrifugation (DGC). […] A minimum of 3 prepared donor samples were routinely pooled to reduce donor-to-donor variability for primary screening assays. Pooled samples were incubated for 3 h at 37 °C under noncapacitating conditions.
In brief, screening batches of cells were transferred to a robotic platform (HighRes Biosolutions Inc.) and maintained during the screen at 37 °C at 5% CO2. Assay-ready 384-well plates containing compounds were prepared prior to the screen and filled with approximately 10,000 spermatozoa (20 μL) per well using a liquid handling system (MultiDrop Combi; ThermoFisher). These plates were incubated for 10 min prior to imaging. The HTS system utilized a Yokogawa CV7000 Cell Voyager high-throughput microscope to record time-lapse images from 2 positions in each well. An adaptation of a tracking algorithm, Trackpy v0.4.1 was utilized to track individual spermatozoa within each well and obtain kinematic parameters. Within the compound-test plates, DMSO was used as the vehicle control.
All steps were performed as previously described. , In summary, data from every compound well were normalized to those from in-plate DMSO controls (wells containing the same amount of DMSO as compound wells). Two positions were recorded in every well, and the average of those positions was used for calculating % of control (median value/DMSO median) × 100. Each plate contained 16 DMSO control wells. Median curvilinear velocity (VCL) was used as the primary readout for the NPSC Diversity Set screened at 6 μM, and percentage progressive motility (PM) was used for all other libraries screened. Hits from the primary screening were chosen based on the % change compared to the control. In these experiments, an RSM of ≥20% compared to negative controls (DMSO) was chosen as a cutoff for potential progression.
In a screening program of this scale, a significant number of compounds are likely to have a negative effect on sperm motility, but a number will show general toxicity. […]

HepG2 cells = assay: HepG2 cytotoxicity assay (resazurin, 72 h); format: cell-based, human; conditions: Homo sapiens, HepG2, 72 h; read-out: HepG2 pEC50 (converted)
From the text: Our overarching aims for investigating our chemical series and deciding which ones had the potential for further progression were to achieve adequate potency in our motility assay, suitable solubility, and minimal cytotoxicity in HepG2 cells. This third point was often the most challenging, as multiple series had cytotoxicity in HepG2 cells. This observation is perhaps not surprising; many potential targets in sperm cells can also be found in somatic cells. Our cytotoxicity assay is run with an incubation time of 72 h, to give time for gross cytotoxic effects to become apparent.
Compound dilution curves were plated directly using a Labcyte Echo 550 acoustic dispenser (125 nL) in 384-well white clear-bottom plates (Greiner). HepG2 cells (ATCCHepG2 HB-8065) were cultured in minimum essential medium (supplemented with glutamax) with 10% FCS and plated (25 μL) using a WellMate dispenser ([…]) and incubated for 72 h. Doxorubicin was used as a positive control drug. Resazurin was then added to each well at a final concentration of 45 μM, and fluorescence was measured using a PHERAstar LS (BMG Labtech) after 4 h of further incubation (excitation of 528 nm and emission of 590 nm). Raw data were normalized to controls and expressed as % growth.
Figure S2: Concentration-response curves from high throughput HepG2 viability assay. Each compound was tested in duplicate and the curves of each replicate are shown. The reported values in the tables are an average of the 2 pEC50 values obtained. […]
determine 0% effect, positive control used to determine 100% effect).
Hit compounds 1a, 6b and 7a were repurchased from commercial suppliers including enamine and […]

Aqueous solubility = format: physicochemical
[1] = 10 min, 10 min incubation, reported <X (neg. log of top concentration) if largest reduction <70%, read-out: RSM pEC50 10 mins (converted)
[2] = 3 h incubation, reported <X if largest reduction <70%, read-out: RSM pEC50 3 hrs (converted)
[3] = 6 h incubation, reported <X if largest reduction <70%, read-out: RSM pEC50 6 hrs (converted)

Row | SMILES | EC50 (human sperm; [1]) [µM] | EC50 (human sperm; [2]) [µM] | EC50 (human sperm; [3]) [µM] | EC50 (HepG2 cells) [µM] | solubility (Aqueous solubility) [µM] | difference between pEC50 in the sperm motility assay and pEC50 in the HepG2 cytotoxicity assay (human sperm) [log units]
1 | NCCN(C(=O)c1ccccc1Cl)c1ccc(Cl)cc1 [Compound 1l] | > 31.6 | > 31.6 | > 31.6 | 79.4 | 240 (≈ 74.2 µg/mL) | 
2 | O=C(Nc1cccc(Cl)c1)c1cc(Cl)ccc1O [Compound 1f] | 5.01 |  |  | 6.31 | 4.1 (≈ 1.16 µg/mL) | 
3 | N#Cc1ccc(NC(=O)c2cc(Cl)ccc2O)cc1F [Compound 1d] | 2.51 |  |  | 6.31 | 35 (≈ 10.2 µg/mL) | 
4 | c1ccc2c(N3CCCCC3)cc(N3CCOCC3)nc2c1 [Compound 7d] | > 31.6 | > 31.6 | > 31.6 | > 100 | 140 (≈ 41.6 µg/mL) | 
5 | O=C(Nc1nc(-c2ccccn2)cs1)NC1CCNCC1 [Compound 3k] | > 31.6 | > 31.6 | > 31.6 | > 100 | 130 (≈ 39.4 µg/mL) | 
6 | O=C(Nc1nc2cc(Cl)ccc2s1)C1CC1 [Compound 4j] | > 31.6 | > 31.6 | > 31.6 | > 100 | 3.4 (≈ 0.859 µg/mL) | 
7 | CC(=O)Nc1nc2c(Cl)c(Cl)ccc2s1 [Compound 4a, N-(4,5-Dichlorobenzo[d]thiazol-2-yl)acetamide] | 12.6 | 5.01 | 3.98 | 50.1 | 200 (≈ 52.2 µg/mL) | ~1
8 | c1ccc(-c2cc(N3CCCCC3)c3ccccc3n2)nc1 [Compound 7a, 4-(Piperidin-1-yl)-2-(pyridin-2-yl)quinoline] | > 25.1 | > 25.1 | 1.58 | > 100 | 10 (≈ 2.89 µg/mL) | 
9 | Cc1ccc2sc(NC(=O)C3CC3)nc2c1C [Compound 4m] | > 31.6 | > 31.6 | > 31.6 | > 100 | 5.5 (≈ 1.35 µg/mL) | 
10 | c1ccc2c(N3CCCCC3)cc(N3CCCC3)nc2c1 [Compound 7f] | > 31.6 | > 31.6 | > 31.6 | 50.1 | 220 (≈ 61.9 µg/mL) | 
11 | Cc1cc(Nc2ccccc2)n(-c2ccccc2)n1 [Compound 6c] | > 31.6 | > 31.6 | > 31.6 | > 100 | 81 (≈ 20.2 µg/mL) | 
12 | COc1cc(N2CCOCC2)ccc1Nc1ncc(Cl)c(Nc2ccccc2NS(C)(=O)=O)n1 [Compound 2a, N-(2-((5-Chloro-2-((2-methoxy-4-morpholinophenyl)amino)pyrimidin-4-yl)amino)phenyl)methanesulfonamide, reference compound] | 3.98 | 2.51 | 2 | 3.98 | 30 (≈ 15.2 µg/mL) | 
13 | O=C(Nc1nc2c(Cl)c(Cl)ccc2s1)C1CCCC1 [Compound 4f] | 10 | 5.01 | 3.98 | 50.1 | 4.2 (≈ 1.32 µg/mL) | 
14 | O=C(Nc1nc(-c2ccc(F)cc2F)cs1)Nc1ccc(F)cc1F [Compound 3f] | > 31.6 | > 31.6 | > 31.6 | > 100 | 0.29 (≈ 0.107 µg/mL) | 
15 | O=C(Nc1nc2c(F)c(F)ccc2s1)C1CC1 [Compound 4k] | > 31.6 | > 31.6 | > 31.6 | > 100 | 8.5 (≈ 2.16 µg/mL) | 
16 | O=C(Nc1ccc(OCc2ccccc2)cc1)c1ccccc1Cl [Compound 1k] | > 20 |  |  | > 100 | 0.64 (≈ 0.216 µg/mL) | 
17 | O=C(Nc1nc2c(Cl)c(Cl)ccc2s1)c1ccccc1 [Compound 4g] | 10 | 3.98 | 3.98 | 100 | 0.6 (≈ 0.194 µg/mL) | 
18 | O=C(Nc1nc2cc(F)c(F)cc2s1)C1CC1 [Compound 4l] | > 31.6 | > 31.6 | > 31.6 | > 100 | 4 (≈ 1.02 µg/mL) | 
19 | CC(C)CC(=O)Nc1nc2c(Cl)c(Cl)ccc2s1 [Compound 4e] | > 31.6 | 6.31 | 6.31 | > 100 | 4.5 (≈ 1.36 µg/mL) | 
20 | O=C(Nc1nc2c(Cl)c(Cl)ccc2s1)C1CC1 [Compound 4d] | 10 | 3.98 | 3.98 | 50.1 | 12 (≈ 3.45 µg/mL) | 
21 | O=C(Nc1nc(-c2ccccn2)cs1)NC1CCOCC1 [Compound 3i] | > 31.6 | > 31.6 | > 31.6 | > 100 | 220 (≈ 67 µg/mL) | 
22 | N#Cc1ccc(NC(=O)c2cc(Cl)ccc2O)cc1Cl [Compound 1e] | 2.51 |  |  | 5.01 | 2.3 (≈ 0.706 µg/mL) | 
23 | CCN(CC)C(=O)c1cc(Nc2ccnc3cc(Cl)ccc23)ccc1O [Compound 5d] | > 31.6 | > 31.6 | > 31.6 | > 100 | 4.9 (≈ 1.81 µg/mL) | 
24 | Cc1cc(C)nc(-n2nc(C)cc2NC(=O)c2ccccc2)n1 [Compound 6d] | > 31.6 | > 31.6 | > 31.6 | > 100 | 15 (≈ 4.61 µg/mL) | 
